Source: patent US20250026721A1, “COMPOUNDS AND METHODS FOR MODULATING RAS-PI3K” (Vividion Therapeutics, Inc., priority 2023, published 2025)
pIC50: −log10 of the molar value.

biological target: T1, PIK3CA_C242 (Homo sapiens, UniProt P42336); assay: Proteomic TE50 (IA-DTB / TMT mass spectrometry) in Jurkat cell lysate; format: binding; details: 1 hour at rt, 7-point dose response
T1 construct: endogenous in cells; host or cells: Jurkat cell lysate
Description: Example 4. Proteomic TE50 In vitro TE50 values for PIK3CA_C242 were obtained by treating 500 μg of cell lysate generated from Jurkat cells with DMSO or compound for 1 hour at rt followed by the addition of 200 μM desthiobiotin polyethyleneoxide iodoacetamide (IA-DTB) in DMSO for one hour at rt. Compounds were serially diluted 1:5 for a total of 7 points in order to generate dose response curves. Samples were then precipitated by the addition of 8× ice cold acetone and incubated at -80° C. for two hours. Protein was then pelleted by centrifugation (4,200 RPM, 45 min, 4° C.). The pelleted material was resuspended in 9M urea, 50 mM ammonium bicarbonate and proteins were reduced and alkylated by the addition of DTT and iodoacetamide (10 and 30 mM, respectively). Following reduction and alkylation, samples were exchanged into 2M urea (Zeba spin desalting plates, Thermo Fisher) and digested with Trypsin. IA-DTB labeled peptides were isolated with streptavidin agarose resin. Enriched peptides were eluted by the addition of 50% acetonitrile (ACN) 0.1% formic acid (FA) and dried in a SpeedVac vacuum concentrator. […] Reactions were quenched by the addition of 6.5 μL of 5% hydroxylamine. Samples were then combined and desalted on a Evolute express ABN plate (Biotage, 600-0010-PX01). Targeted TMT measurements were collected using an Orbitrap Lumos Tribrid Mass Spectrometer (Thermo Scientific) coupled to an UltiMate 3000 Series Rapid Separation LC system and autosampler (Thermo Scientific Dionex). Peptides were eluted onto a custom C18 capillary analytical column (75-μm inner diameter fused silica, packed with Acclaim PepMap C18 resin; Thermo Scientific) using an Acclaim PepMap 100 (Thermo 164535) loading column, and separated at a flow rate of […]. Data were acquired using a specific MS3-based TMT method targeting the peptide containing […], +2 charge state) where MS2 peptide fragmentation is triggered upon detection of the peptide precursor ion. Subsequent MS3 analysis was then performed using pre-selected peptide fragment ions that were isolated for fragmentation using synchronous precursor selection. RAW files were converted to MZXML format and searched with the SEQUEST algorithm using the […] software package. TMT quantitation was performed with a filter requiring at least ten summed signal-to-noise (S/N) for control channels. TE50 values were calculated from 7-point dose response curves created using the reporter ion S/N for each channel.

T1 sequence (P42336 whole entry): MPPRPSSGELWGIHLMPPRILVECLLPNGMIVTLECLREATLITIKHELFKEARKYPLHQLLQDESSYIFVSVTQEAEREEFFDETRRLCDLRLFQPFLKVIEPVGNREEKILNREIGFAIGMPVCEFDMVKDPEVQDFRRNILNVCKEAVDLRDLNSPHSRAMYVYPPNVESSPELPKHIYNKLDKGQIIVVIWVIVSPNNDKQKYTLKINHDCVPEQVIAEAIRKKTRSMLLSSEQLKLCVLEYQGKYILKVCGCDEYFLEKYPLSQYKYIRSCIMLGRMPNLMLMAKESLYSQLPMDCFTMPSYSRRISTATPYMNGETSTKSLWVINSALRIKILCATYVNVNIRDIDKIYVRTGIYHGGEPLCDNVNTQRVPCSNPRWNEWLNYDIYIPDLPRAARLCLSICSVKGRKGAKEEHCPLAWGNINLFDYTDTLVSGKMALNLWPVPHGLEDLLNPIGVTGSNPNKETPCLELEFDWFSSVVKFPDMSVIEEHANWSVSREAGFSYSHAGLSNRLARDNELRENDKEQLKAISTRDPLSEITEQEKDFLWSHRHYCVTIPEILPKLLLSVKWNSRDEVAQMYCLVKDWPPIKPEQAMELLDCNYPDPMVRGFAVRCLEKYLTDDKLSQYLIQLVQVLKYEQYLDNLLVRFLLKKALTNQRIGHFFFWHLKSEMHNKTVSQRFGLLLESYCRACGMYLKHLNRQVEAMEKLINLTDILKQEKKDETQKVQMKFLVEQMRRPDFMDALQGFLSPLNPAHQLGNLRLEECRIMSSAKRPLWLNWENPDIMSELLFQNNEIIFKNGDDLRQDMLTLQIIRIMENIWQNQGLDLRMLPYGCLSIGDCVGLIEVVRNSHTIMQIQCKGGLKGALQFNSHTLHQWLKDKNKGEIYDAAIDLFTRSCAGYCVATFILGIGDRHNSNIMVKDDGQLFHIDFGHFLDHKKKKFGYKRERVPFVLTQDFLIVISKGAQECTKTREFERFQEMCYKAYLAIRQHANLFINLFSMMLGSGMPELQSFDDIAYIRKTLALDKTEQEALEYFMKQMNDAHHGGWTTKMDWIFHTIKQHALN
T1 sequence (P27986 whole entry partner): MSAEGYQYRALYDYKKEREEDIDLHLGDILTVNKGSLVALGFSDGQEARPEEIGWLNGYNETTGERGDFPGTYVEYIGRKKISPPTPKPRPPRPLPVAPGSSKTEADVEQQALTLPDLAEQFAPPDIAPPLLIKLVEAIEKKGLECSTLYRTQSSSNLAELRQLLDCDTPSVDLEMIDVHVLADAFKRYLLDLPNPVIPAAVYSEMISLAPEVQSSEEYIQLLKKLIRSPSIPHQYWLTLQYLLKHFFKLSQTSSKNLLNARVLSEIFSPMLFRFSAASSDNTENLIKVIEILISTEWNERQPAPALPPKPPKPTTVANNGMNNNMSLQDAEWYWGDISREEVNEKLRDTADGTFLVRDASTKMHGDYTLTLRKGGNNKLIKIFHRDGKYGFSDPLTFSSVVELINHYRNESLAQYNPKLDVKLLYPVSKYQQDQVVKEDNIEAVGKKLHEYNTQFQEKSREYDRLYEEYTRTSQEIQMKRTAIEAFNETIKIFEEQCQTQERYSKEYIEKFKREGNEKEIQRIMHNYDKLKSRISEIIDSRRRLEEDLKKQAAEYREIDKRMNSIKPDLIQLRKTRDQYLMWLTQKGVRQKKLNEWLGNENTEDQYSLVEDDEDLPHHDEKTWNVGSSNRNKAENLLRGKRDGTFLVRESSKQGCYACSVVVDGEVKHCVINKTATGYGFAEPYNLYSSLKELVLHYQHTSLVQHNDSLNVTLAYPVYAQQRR

Row | pIC50 | SMILES
1 | 6.58 | COc1ccc(S(=O)(=O)N2CCC(F)(C(=O)NC/C=C/S(C)(=O)=O)CC2)c(-c2ccccc2Cl)c1 [Compound 43, (E)-1-((2′-chloro-5-methoxy-[1,1′-biphenyl]-2-yl)sulfonyl)-4-fluoro-N-(3-(methylsulfonyl)allyl)piperidine-4-carboxamide]
2 | 6.11 | CC(C)Oc1ccc(S(=O)(=O)N2CCC(F)(C(=O)N[C@H](C)/C=C\S(C)(=O)=O)CC2)c(-c2ccccc2Cl)c1 [Compound 105, (R,Z)-1-((2′-chloro-5-isopropoxy-[1,1′-biphenyl]-2-yl)sulfonyl)-4-fluoro-N-(4-(methylsulfonyl)but-3-en-2-yl)piperidine-4-carboxamide]
3 | 6.12 | COc1cccc(-c2cc(Cl)ccc2S(=O)(=O)N2CCC(F)(C(=O)NC/C=C/S(C)(=O)=O)CC2)c1 [Compound 36, (E)-1-((5-chloro-3′-methoxy-[1,1′-biphenyl]-2-yl)sulfonyl)-4-fluoro-N-(3-(methylsulfonyl)allyl)piperidine-4-carboxamide]
4 | 6.80 | COc1ccc(S(=O)(=O)N2CCC(F)(C(=O)NC/C=C\C#N)CC2)c(-c2ccccc2Cl)c1 [Compound 71, (Z)-1-((2′-chloro-5-methoxy-[1,1′-biphenyl]-2-yl)sulfonyl)-N-(3-cyanoallyl)-4-fluoropiperidine-4-carboxamide]
5 | 6.54 | COc1ccc(S(=O)(=O)N2CCC(F)(C(=O)NC/C=C/S(C)(=O)=O)CC2)c(-c2cccc(Cl)c2)c1 [Compound 41, (E)-1-((3′-chloro-5-methoxy-[1,1′-biphenyl]-2-yl)sulfonyl)-4-fluoro-N-(3-(methylsulfonyl)allyl)piperidine-4-carboxamide]
6 | 6.28 | N#C/C=C/CNC(=O)C1(F)CCN(S(=O)(=O)c2ccc(Cl)cc2-c2ccccc2Cl)CC1 [Compound 69, (E)-N-(3-cyanoallyl)-1-((2′,5-dichloro-[1,1′-biphenyl]-2-yl)sulfonyl)-4-fluoropiperidine-4-carboxamide]
7 | 6.57 | COc1cc(-c2ccccc2Cl)c(S(=O)(=O)N2CCC(F)(C(=O)NC/C=C\C#N)CC2)cn1 [Compound 194, (Z)-1-((4-(2-chlorophenyl)-6-methoxypyridin-3-yl)sulfonyl)-N-(3-cyanoallyl)-4-fluoropiperidine-4-carboxamide]
8 | 6.62 | N#C/C=C/CNC(=O)C1(F)CCN(S(=O)(=O)c2cnc(Br)cc2-c2ccccc2Cl)CC1 [Compound 278, (E)-1-((6-bromo-4-(2-chlorophenyl)pyridin-3-yl)sulfonyl)-N-(3-cyanoallyl)-4-fluoropiperidine-4-carboxamide]
9 | 6.43 | CN(C)c1ccc(S(=O)(=O)N2CCC(F)(C(=O)NC/C=C/C#N)CC2)c(-c2ccccc2Cl)c1 [Compound 97, (E)-1-((2′-chloro-5-(dimethylamino)-[1,1′-biphenyl]-2-yl)sulfonyl)-N-(3-cyanoallyl)-4-fluoropiperidine-4-carboxamide]
10 | 6.68 | CS(=O)(=O)/C=C/CNC(=O)C1(F)CCN(S(=O)(=O)c2ccc(Cl)cc2-c2ccccc2Cl)CC1 [Compound 40, (E)-1-((2′,5-dichloro-[1,1′-biphenyl]-2-yl)sulfonyl)-4-fluoro-N-(3-(methylsulfonyl)allyl)piperidine-4-carboxamide]
11 | 6.19 | COc1ccc(S(=O)(=O)N2CCC(F)(C(=O)NC/C=C/S(C)(=O)=O)CC2)c(-c2ccccc2)c1 [Compound 38, (E)-4-fluoro-1-((5-methoxy-[1,1′-biphenyl]-2-yl)sulfonyl)-N-(3-(methylsulfonyl)allyl)piperidine-4-carboxamide]
12 | 6.34 | CC#Cc1cccc(-c2cc(Cl)ccc2S(=O)(=O)N2CCC(F)(C(=O)NC/C=C/S(C)(=O)=O)CC2)c1 [Compound 46, (E)-1-((5-chloro-3′-(prop-1-yn-1-yl)-[1,1′-biphenyl]-2-yl)sulfonyl)-4-fluoro-N-(3-(methylsulfonyl)allyl)piperidine-4-carboxamide]

Continued, compound first:

Row | SMILES | pIC50
13 | COc1ccc(S(=O)(=O)N2CCC(F)(C(=O)N3CC(/C=C\S(C)(=O)=O)C3)CC2)c(-c2ccccc2Cl)c1 [Compound 230, (Z)-(1-((2′-chloro-5-methoxy-[1,1′-biphenyl]-2-yl)sulfonyl)-4-fluoropiperidin-4-yl)(3-(2-(methylsulfonyl)vinyl)azetidin-1-yl)methanone] | 6.85
14 | C[C@@H](/C=C\S(C)(=O)=O)NC(=O)C1(F)CCN(S(=O)(=O)c2ccc(Cl)cc2-c2cccc(OCc3ccccc3)c2)CC1 [Compound 268, (S,Z)-1-((3′-(benzyloxy)-5-chloro-[1,1′-biphenyl]-2-yl)sulfonyl)-4-fluoro-N-(4-(methylsulfonyl)but-3-en-2-yl)piperidine-4-carboxamide] | 6.45
15 | COc1cccc(-c2cc(Br)ccc2S(=O)(=O)N2CCC(F)(C(=O)N[C@@H](C)/C=C\S(C)(=O)=O)CC2)c1 [Compound 61, (S,Z)-1-((5-bromo-3′-methoxy-[1,1′-biphenyl]-2-yl)sulfonyl)-4-fluoro-N-(4-(methylsulfonyl)but-3-en-2-yl)piperidine-4-carboxamide] | 7.18
16 | C[C@H](/C=C\S(C)(=O)=O)NC(=O)C1(F)CCN(S(=O)(=O)c2ccc(N3CCN(C(=O)OC(C)(C)C)CC3)cc2-c2ccccc2Cl)CC1 [Compound 118, tert-butyl (R,Z)-4-(2′-chloro-6-((4-fluoro-4-((4-(methylsulfonyl)but-3-en-2-yl)carbamoyl)piperidin-1-yl)sulfonyl)-[1,1′-biphenyl]-3-yl)piperazine-1-carboxylate] | 6.37
17 | C[C@H](/C=C\S(C)(=O)=O)NC(=O)C1(F)CCN(S(=O)(=O)c2ccc(OC3CC3)cc2-c2ccccc2Cl)CC1 [Compound 101, (R,Z)-1-((2′-chloro-5-cyclopropoxy-[1,1′-biphenyl]-2-yl)sulfonyl)-4-fluoro-N-(4-(methylsulfonyl)but-3-en-2-yl)piperidine-4-carboxamide] | 6.07
18 | C[C@H](/C=C\S(C)(=O)=O)NC(=O)C1(F)CCN(S(=O)(=O)c2ccc(C3CN(C(=O)OC(C)(C)C)C3)cc2-c2ccccc2Cl)CC1 [Compound 99, tert-butyl (R,Z)-3-(2′-chloro-6-((4-fluoro-4-((4-(methylsulfonyl)but-3-en-2-yl)carbamoyl)piperidin-1-yl)sulfonyl)-[1,1′-biphenyl]-3-yl)azetidine-1-carboxylate] | 6.08
19 | C[C@H](/C=C\S(C)(=O)=O)NC(=O)C1(F)CCN(S(=O)(=O)c2ccc(C3CCC3)cc2-c2ccccc2Cl)CC1 [Compound 98, (R,Z)-1-((2′-chloro-5-cyclobutyl-[1,1′-biphenyl]-2-yl)sulfonyl)-4-fluoro-N-(4-(methylsulfonyl)but-3-en-2-yl)piperidine-4-carboxamide] | 6.28
20 | COc1ccc(S(=O)(=O)N2CCC(F)(C(=O)N[C@H](C)/C=C\S(C)(=O)=O)CC2)c(-c2cc(F)ccc2Cl)c1 [Compound 28, (R,Z)-1-((2′-chloro-5′-fluoro-5-methoxy-[1,1′-biphenyl]-2-yl)sulfonyl)-4-fluoro-N-(4-(methylsulfonyl)but-3-en-2-yl)piperidine-4-carboxamide] | 6.20
21 | COc1cccc(-c2cc(Br)ccc2S(=O)(=O)N2CCC(F)(C(=O)NC/C=C/S(C)(=O)=O)CC2)c1 [Compound 63, (E)-1-((5-bromo-3′-methoxy-[1,1′-biphenyl]-2-yl)sulfonyl)-4-fluoro-N-(3-(methylsulfonyl)allyl)piperidine-4-carboxamide] | 6.44
22 | C[C@H](/C=C\S(C)(=O)=O)NC(=O)C1(F)CCN(S(=O)(=O)c2cnc(O)cc2-c2ccccc2Cl)CC1 [Compound 276, (R,Z)-1-((4-(2-chlorophenyl)-6-hydroxypyridin-3-yl)sulfonyl)-4-fluoro-N-(4-(methylsulfonyl)but-3-en-2-yl)piperidine-4-carboxamide] | 6.24
23 | CN(C)c1ccc(S(=O)(=O)N2CCC(F)(C(=O)NC/C=C/S(C)(=O)=O)CC2)c(-c2ccccc2)c1 [Compound 94, (E)-1-((5-(dimethylamino)-[1,1′-biphenyl]-2-yl)sulfonyl)-4-fluoro-N-(3-(methylsulfonyl)allyl)piperidine-4-carboxamide] | 6.72
24 | Cc1ccccc1-c1cc(OC(C)C)ccc1S(=O)(=O)N1CCC(F)(C(=O)N[C@H](C)/C=C\S(C)(=O)=O)CC1 [Compound 103, (R,Z)-4-fluoro-1-((5-isopropoxy-2′-methyl-[1,1′-biphenyl]-2-yl)sulfonyl)-N-(4-(methylsulfonyl)but-3-en-2-yl)piperidine-4-carboxamide] | 6.08
25 | COc1cccc(-c2cc(Cl)cnc2S(=O)(=O)N2CCC(F)(C(=O)N[C@@H](C)/C=C\S(C)(=O)=O)CC2)c1 [Compound 200, (S,Z)-1-((5-chloro-3-(3-methoxyphenyl)pyridin-2-yl)sulfonyl)-4-fluoro-N-(4-(methylsulfonyl)but-3-en-2-yl)piperidine-4-carboxamide] | 6.10
